# Reference: patent publication US9894902B2, “Herbicidal compositions comprising 4-amino-3-chloro-6-(4-chloro-2-fluoro-3-methoxyphenyl)pyridine-2-carboxylic acid or a derivative thereof and picloram or a derivative thereof” (Dow AgroSciences LLC, priority 2013, dated 2018)
# Assays:
# Assay in all cases: Postemergent herbicidal activity, greenhouse, foliar-applied
# Type in all cases: in vivo
# Settings in all cases: foliar postemergence
# [1] = test system: VIOTR Viola tricolor L. (wild violet)
# Procedure: (§1) Evaluation of Postemergent Herbicidal Activity. Seeds or nutlets of the desired test plant species were planted in Sun Gro Metro-Mix® 360 planting mixture, which typically has a pH of 6.0 to 6.8 and an organic matter content of about 30 percent, in plastic pots with a surface area of 64 square centimeters (cm^2). […] The plants were grown for 7-21 days (d) in a greenhouse with an approximate 15 hour (h) photoperiod which was maintained at about 23-29° C. during the day and 22-28° C. during the night. Nutrients and water were added on a regular basis and supplemental lighting was provided with overhead metal halide 1000-Watt lamps as necessary. The plants were employed for testing when they reached the first or second true leaf stage.
# (§2) A weighed amount, determined by the highest rate to be tested, of each test compound was placed in a 25 milliliter (mL) glass vial and was dissolved in 4 mL of a 97:3 volume per volume (v/v) mixture of acetone and dimethyl sulfoxide (DMSO) to obtain concentrated stock solutions. […] The concentrated stock solutions obtained were diluted with 20 mL of an aqueous mixture containing acetone, water, isopropyl alcohol, DMSO, Atplus 411F crop oil concentrate, and Triton® X-155 surfactant in a 48.5:39:10:1.5:1.0:0.02 v/v ratio to obtain spray solutions containing the highest application rates. Additional application rates were obtained by serial dilution of 12 mL of the high rate solution into a solution containing 2 mL of a 97:3 v/v mixture of acetone and DMSO and 10 mL of an aqueous mixture containing acetone, water, isopropyl alcohol, DMSO, Atplus 411F crop oil concentrate, and Triton X-155 surfactant in a 48.5:39:10:1.5:1.0:0.02 v/v ratio to obtain 1/2×, 1/4×, 1/8×and 1/16× rates of the high rate. Compound requirements are based upon a 12 mL application volume at a rate of 187 liters per hectare (L/ha). Formulated compounds were applied to the plant material with an overhead Mandel track sprayer equipped with 8002E nozzles calibrated to deliver 187 L/ha over an application area of 0.503 square meters (m^2) at a spray height of 18 inches ([…]) above the average plant canopy height. Control plants were sprayed in the same manner with the solvent blank.
# (§3) Treatments consisted of the methyl ester of 4-amino-3-chloro-6-(4-chloro-2-fluoro-3-methoxyphenyl)pyridine-2-carboxylic acid (Cmpd 1) as technical grade material and picloram (Tordon® 22K) alone and in combination. The form of compound of formula (I) and picloram-potassium salt were applied on an acid equivalent basis.
# (§4) The treated plants and control plants were placed in a greenhouse as described above and watered by subirrigation to prevent wash-off of the test compounds. After 14 d, the condition of the test plants as compared with that of the untreated plants was determined visually and scored on a scale of 0 to 100 percent where 0 corresponds to no injury and 100 corresponds to complete kill.
# (§5) The values reported are % control visually rated. Colby's equation was used to determine the herbicidal effects expected from the mixtures (Colby, S.R. Calculation of the synergistic and antagonistic response of herbicide combinations. Weeds 1967, 15, 20-22.).
# (§6) More specifically, the following equation was used to calculate the expected activity of mixtures containing two active ingredients, A and B: Expected=A+B−(A×B/100) • A=observed efficacy of active ingredient A at the same concentration as used in the mixture; • B=observed efficacy of active ingredient B at the same concentration as used in the mixture.
# [2] = test system: GLXMA Glycine max (volunteer soybean)
# Procedure: as §1, §2, §3, §4, §5, §6
# [3] = test system: BRSNW Brassica napus (winter oilseed rape)
# Procedure: as §1, §2, §3, §4, §5, §6
# [4] = test system: CIRAR Cirsium arvense (L.) Scop. (Canada thistle)
# Procedure: as §1, §2, §3, §4, §5, §6
# [5] = test system: AMARE Amaranthus retroflexus L. (redroot pigweed)
# Procedure: as §1, §2, §3, §4, §5, §6
# [6] = test system: EPHHL Euphorbia heterophylla L. (wild poinsettia)
# Procedure: as §1, §2, §3, §4, §5, §6
# [7] = test system: STEME Stellaria media (L.) Vill. (common chickweed)
# Procedure: as §1, §2, §3, §4, §5, §6
# [8] = test system: CYPES Cyperus esculentus L. (yellow nutsedge)
# Procedure: as §1, §2, §3, §4, §5, §6
# [9] = test system: ABUTH Abutilon theophrasti Medik. (velvetleaf)
# Procedure: as §1, §2, §3, §4, §5, §6
# [10] = test system: SETFA Setaria faberi Herrm. (giant foxtail)
# Procedure: as §1, §2, §3, §4, §5, §6
smiles,measurement,setting,value
"Nc1c(Cl)c(Cl)nc(C(=O)O)c1Cl [Picloram, 4-amino-3,5,6-trichloro-2-pyridinecarboxylic acid]",Visual Growth reduction (%) 14 Days After Application VIOTR obs,[1]; Picloram 12 g ae/ha alone,0%
same,Visual Growth reduction (%) 14 Days After Application VIOTR obs,[1]; Picloram 24 g ae/ha alone,3%
same,Visual Growth reduction (%) 14 Days After Application GLXMA obs,[2]; Picloram 12 g ae/ha alone,73%
same,Visual Growth reduction (%) 14 Days After Application GLXMA obs,[2]; Picloram 24 g ae/ha alone,82%
same,Visual Growth reduction (%) 14 Days After Application BRSNW obs,[3]; Picloram 12 g ae/ha alone,13%
same,Visual Growth reduction (%) 14 Days After Application BRSNW obs,[3]; Picloram 24 g ae/ha alone,20%
same,Visual Growth reduction (%) 14 Days After Application CIRAR obs,[4]; Picloram 12 g ae/ha alone,65%
same,Visual Growth reduction (%) 14 Days After Application CIRAR obs,[4]; Picloram 24 g ae/ha alone,82%
same,Visual Growth reduction (%) 14 Days After Application AMARE obs,[5]; Picloram 12 g ae/ha alone,63%
same,Visual Growth reduction (%) 14 Days After Application AMARE obs,[5]; Picloram 24 g ae/ha alone,63%
same,Visual Growth reduction (%) 14 Days After Application EPHHL obs,[6]; Picloram 12 g ae/ha alone,62%
same,Visual Growth reduction (%) 14 Days After Application EPHHL obs,[6]; Picloram 24 g ae/ha alone,65%
same,Visual Growth reduction (%) 14 Days After Application STEME obs,[7]; Picloram 12 g ae/ha alone,27%
same,Visual Growth reduction (%) 14 Days After Application STEME obs,[7]; Picloram 24 g ae/ha alone,17%
same,Visual Growth reduction (%) 14 Days After Application CYPES obs,[8]; Picloram 12 g ae/ha alone,0%
same,Visual Growth reduction (%) 14 Days After Application CYPES obs,[8]; Picloram 24 g ae/ha alone,0%
same,Visual Growth reduction (%) 14 Days After Application ABUTH obs,[9]; Picloram 12 g ae/ha alone,25%
same,Visual Growth reduction (%) 14 Days After Application ABUTH obs,[9]; Picloram 24 g ae/ha alone,15%
same,Visual Growth reduction (%) 14 Days After Application SETFA obs,[10]; Picloram 12 g ae/ha alone,0%
same,Visual Growth reduction (%) 14 Days After Application SETFA obs,[10]; Picloram 24 g ae/ha alone,0%
"COC(=O)c1nc(-c2ccc(Cl)c(OC)c2F)cc(N)c1Cl [Cmpd I, methyl ester of 4-amino-3-chloro-6-(4-chloro-2-fluoro-3-methoxyphenyl)pyridine-2-carboxylic acid]",Visual Growth reduction (%) 14 Days After Application VIOTR obs,[1]; Cmpd I 2.5 g ae/ha alone,30%
same,Visual Growth reduction (%) 14 Days After Application VIOTR obs,[1]; Cmpd I 5 g ae/ha alone,43%
same,Visual Growth reduction (%) 14 Days After Application VIOTR obs,[1]; Cmpd I 10 g ae/ha alone,62%
same,Visual Growth reduction (%) 14 Days After Application GLXMA obs,[2]; Cmpd I 2.5 g ae/ha alone,80%
same,Visual Growth reduction (%) 14 Days After Application GLXMA obs,[2]; Cmpd I 5 g ae/ha alone,87%
same,Visual Growth reduction (%) 14 Days After Application GLXMA obs,[2]; Cmpd I 10 g ae/ha alone,100%
same,Visual Growth reduction (%) 14 Days After Application BRSNW obs,[3]; Cmpd I 2.5 g ae/ha alone,0%
same,Visual Growth reduction (%) 14 Days After Application BRSNW obs,[3]; Cmpd I 5 g ae/ha alone,0%
same,Visual Growth reduction (%) 14 Days After Application BRSNW obs,[3]; Cmpd I 10 g ae/ha alone,10%
same,Visual Growth reduction (%) 14 Days After Application CIRAR obs,[4]; Cmpd I 2.5 g ae/ha alone,47%
same,Visual Growth reduction (%) 14 Days After Application CIRAR obs,[4]; Cmpd I 5 g ae/ha alone,53%
same,Visual Growth reduction (%) 14 Days After Application CIRAR obs,[4]; Cmpd I 10 g ae/ha alone,65%
same,Visual Growth reduction (%) 14 Days After Application AMARE obs,[5]; Cmpd I 2.5 g ae/ha alone,50%
same,Visual Growth reduction (%) 14 Days After Application AMARE obs,[5]; Cmpd I 5 g ae/ha alone,58%
same,Visual Growth reduction (%) 14 Days After Application AMARE obs,[5]; Cmpd I 10 g ae/ha alone,77%
same,Visual Growth reduction (%) 14 Days After Application EPHHL obs,[6]; Cmpd I 2.5 g ae/ha alone,85%
same,Visual Growth reduction (%) 14 Days After Application EPHHL obs,[6]; Cmpd I 5 g ae/ha alone,93%
same,Visual Growth reduction (%) 14 Days After Application EPHHL obs,[6]; Cmpd I 10 g ae/ha alone,100%
same,Visual Growth reduction (%) 14 Days After Application STEME obs,[7]; Cmpd I 2.5 g ae/ha alone,50%
same,Visual Growth reduction (%) 14 Days After Application STEME obs,[7]; Cmpd I 5 g ae/ha alone,57%
same,Visual Growth reduction (%) 14 Days After Application STEME obs,[7]; Cmpd I 10 g ae/ha alone,72%
same,Visual Growth reduction (%) 14 Days After Application CYPES obs,[8]; Cmpd I 2.5 g ae/ha alone,20%
same,Visual Growth reduction (%) 14 Days After Application CYPES obs,[8]; Cmpd I 5 g ae/ha alone,72%
same,Visual Growth reduction (%) 14 Days After Application CYPES obs,[8]; Cmpd I 10 g ae/ha alone,96%
same,Visual Growth reduction (%) 14 Days After Application ABUTH obs,[9]; Cmpd I 2.5 g ae/ha alone,87%
same,Visual Growth reduction (%) 14 Days After Application ABUTH obs,[9]; Cmpd I 5 g ae/ha alone,85%
same,Visual Growth reduction (%) 14 Days After Application ABUTH obs,[9]; Cmpd I 10 g ae/ha alone,90%
same,Visual Growth reduction (%) 14 Days After Application SETFA obs,[10]; Cmpd I 2.5 g ae/ha alone,0%
same,Visual Growth reduction (%) 14 Days After Application SETFA obs,[10]; Cmpd I 5 g ae/ha alone,5%
same,Visual Growth reduction (%) 14 Days After Application SETFA obs,[10]; Cmpd I 10 g ae/ha alone,35%
